Article PMC10174255, “Drug repurposing approach against chikungunya virus: an in vitro and in silico study” (Frontiers in Cellular and Infection Microbiology, 2023)

Experiments:
CHIKV [1] = assay: Viral RNA copy number by quantitative RT-PCR; settings: cotreatment
CHIKV [2] = assay: Viral attachment assay; settings: 1.56 µM and 0.78 µM, at 4°C and 37°C
CHIKV [3] = assay: Antiviral assay (pre-, co-, posttreatment) with FFU readout; settings: for mean log10 viral titer/ml: VC 8.194; for anti-CHIKV activity in primary screening: highest nontoxic concentration
Vero CCL-81 cells = assay: MTT cytotoxicity assay; settings: Vero CCL-81, ≥90% cell viability
MTT cytotoxicity assay = settings: African green monkey
CHIKV [4] = assay: Viral entry assay; settings: 1.56 µM

## C[C@H](N[C@@H](CCc1ccccc1)C(=O)O)C(=O)N1CCC[C@H]1C(=O)O [Enalaprilat]
CHIKV [1]
  effect on viral RNA titer: No significant reduction
CHIKV [2]
  effect on virus attachment: shown to influence virus attachment
CHIKV [3]; Vero CCL-81, any treatment condition
  anti chikungunya activity: exhibit anti chikungunya activity
CHIKV [3]; cotreatment
  Selectivity Index (SI): 167.42
CHIKV [3]; cotreatment, 0.78 µM
  mean log10 viral titer/ml: 7.297 log10 FFU/ml
CHIKV [3]; cotreatment, 1.56 µM
  mean log10 viral titer/ml: 7.052 log10 FFU/ml
CHIKV [3]; cotreatment, FFU, Vero CCL-81
  IC50: 496 nM
CHIKV [3]; cotreatment, FFU
  anti-CHIKV activity in primary screening: effective
CHIKV [3]; posttreatment, FFU
  anti-CHIKV activity in primary screening: did not affect
Vero CCL-81 cells
  The maximum nontoxic concentration used for primary screening of drugs against CHIKV: 1.56 µM
MTT cytotoxicity assay
  CC50: 83 ± 18.7 µM
CHIKV [4]
  effect on virus titer in virus entry assay: affects the virus titer
